Counter-ions that a name gives are not always drawn.
target: Sphingosine 1-phosphate receptor 1 (Homo sapiens, UniProt P21453); assay: S1P1 agonism potentiation – cell-based, potentiator mode, 60K MLSMR set, dose response (AID 466); conditions: not given
Sequence (P21453 whole entry): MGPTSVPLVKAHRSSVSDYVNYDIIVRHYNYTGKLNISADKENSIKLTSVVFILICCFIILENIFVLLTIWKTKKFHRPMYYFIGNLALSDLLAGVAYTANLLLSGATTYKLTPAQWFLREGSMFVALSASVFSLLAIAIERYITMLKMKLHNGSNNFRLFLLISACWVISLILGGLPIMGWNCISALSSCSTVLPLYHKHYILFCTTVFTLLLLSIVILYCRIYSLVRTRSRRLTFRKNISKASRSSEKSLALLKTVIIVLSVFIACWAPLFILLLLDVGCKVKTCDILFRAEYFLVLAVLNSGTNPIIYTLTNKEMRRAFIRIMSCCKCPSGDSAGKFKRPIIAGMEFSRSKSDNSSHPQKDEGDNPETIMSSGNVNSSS

First: Cc1ccsc1C(=O)OCC(=O)c1cc(C)n(CC2CCCO2)c1C (stereo not given) [3-methyl-2-thiophenecarboxylic acid [2-[2,5-dimethyl-1-(2-oxolanylmethyl)-3-pyrrolyl]-2-oxoethyl] ester]
Second: CC(=O)Nc1ccccc1OCC(=O)c1cc(C)n(Cc2cccs2)c1C [MLS000056239]
The EC50 of the first is 37-fold higher: 8.31 µM for the first, 0.223 µM for the second. The second is the more potent here.

Compared with `Cc1ccc(C(C)C)c(OCc2ccc(-c3nnco3)cc2)c1` [2-[4-[(2-isopropyl-5-methyl-phenoxy)methyl]phenyl]-1,3,4-oxadiazole], `COc1ccc(-c2noc(-c3ccccc3F)n2)cc1` [5-(2-fluorophenyl)-3-(4-methoxyphenyl)-1,2,4-oxadiazole] is 3.6-fold higher in EC50: 1.72 µM for the first, 6.17 µM for the second. The first is the more potent here.

Compared with `N#Cc1nc(-c2ccc(OCc3ccccc3)cc2)oc1NCc1cccnc1` [2-(4-benzoxyphenyl)-5-(3-pyridylmethylamino)oxazole-4-carbonitrile], `COCCN(C(=O)c1ccccc1)c1nnc(-c2cccnc2)s1` [MLS000032523] is 2-fold lower in EC50: 9.76 µM for the first, 4.83 µM for the second. The second is the more potent here.

`CCCc1cc(C(=O)N2CCN(C(c3ccccc3)c3ccccc3)CC2)no1` [(4-benzhydrylpiperazin-1-yl)-(5-propyl-1,2-oxazol-3-yl)methanone] and `O=C(c1cc(-c2ccco2)on1)N1CCN(C(c2ccccc2)c2ccccc2)CC1` [(4-benzhydrylpiperazin-1-yl)-[5-(furan-2-yl)-1,2-oxazol-3-yl]methanone] are within 1.5-fold of each other in EC50: 5.97 µM for the first, 5.82 µM for the second.

Going from `O=C(NCc1ccco1)C1CCN(C(=O)c2cc3sccc3n2Cc2ccc(Cl)cc2)CC1` [1-[4-(4-chlorobenzyl)thieno[3,2-b]pyrrole-5-carbonyl]-N-(2-furfuryl)isonipecotamide] to `O=C(Nc1ccc(Cl)cc1)N1CCC(c2nc(-c3ccc(F)cc3)no2)CC1` [4-[3-(4-Fluoro-phenyl)-[1,2,4]oxadiazol-5-yl]-piperidine-1-carboxylic acid (4-chloro-phenyl)-amide], the EC50 falls from 9.88 µM to 5.9 µM (1.7-fold).

Compared with `CC(C)(C)OC(=O)N[C@@H](Cc1ccccc1)c1nnc(S(=O)(=O)Cc2ccccc2)o1` [SMR000047857], `CCN(C(=O)c1ccc(C(C)(C)C)cc1)c1nnc(Cn2nnc3ccccc32)s1` [MLS000072751] is 2.9-fold lower in EC50: 5.33 µM for the first, 1.82 µM for the second.

First: CCCCOc1ncnc2c1[nH]c1ccc(F)cc12 [4-butoxy-8-fluoranyl-5H-pyrimido[5,4-b]indole]
Second: CCC(NCCOc1ccc(Cl)cc1)=C1C(=O)N(C)C(=O)N(C)C1=O [5-[1-[2-(4-chlorophenoxy)ethylamino]propylidene]-1,3-dimethyl-1,3-diazinane-2,4,6-trione]
The EC50 of the first is 1.7-fold lower: 3.07 µM for the first, 5.34 µM for the second. The first is the more potent here.

Going from `COc1ccc(C(=O)C(CN2CCOCC2)c2ccccc2)cc1F` (stereo not given) [1-(3-Fluoro-4-methoxy-phenyl)-3-morpholin-4-yl-2-phenyl-propan-1-one] to `O=C(Oc1cccc(C(=O)N2CCOCC2)c1)c1ccc(Br)cc1` [(3-morpholin-4-ylcarbonylphenyl) 4-bromanylbenzoate], the EC50 rises from 31.1 µM to over 95 µM.

Compared with `c1csc(CCNc2ncnc3sc4c(c23)CCC4)c1` [7,8-dihydro-6H-cyclopenta[4,5]thieno[1,2-c]pyrimidin-1-yl-[2-(2-thienyl)ethyl]amine], `COc1ccc(NC(=O)c2cc(-c3cccs3)on2)cc1OC` [MLS000087261] is 3.7-fold higher in EC50: 1.44 µM for the first, 5.28 µM for the second. The first is the more potent here.

Compared with `Nc1nonc1C(=O)NCCNCc1cc(Br)ccc1OCc1ccccc1F` [4-amino-N-[2-[[5-bromo-2-(2-fluorobenzyl)oxy-benzyl]amino]ethyl]furazan-3-carboxamide;hydrochloride], `CC1=NC(=O)NC(c2ccccc2)C1C(=O)OCc1ccc2c(c1)OCO2` (stereo not given) [1,3-benzodioxol-5-ylmethyl 6-methyl-2-oxidanylidene-4-phenyl-3,4-dihydro-1H-pyrimidine-5-carboxylate] is 2.6-fold lower in EC50: 8.9 µM for the first, 3.42 µM for the second.

First: Cn1c(-c2c(N)n(C3CCCC3)c3nc4ccccc4nc23)nc2ccccc21 [1-cyclopentyl-3-(1-methyl-2-benzimidazolyl)-2-pyrrolo[3,2-b]quinoxalinamine]
Second: Cc1cc(N2CCN(c3nc4ccccc4s3)CC2)n2ncnc2n1 [2-[4-(5-methyl-[1,2,4]triazolo[1,5-a]pyrimidin-7-yl)-1-piperazinyl]-1,3-benzothiazole]
The EC50 of the first is 4-fold lower: 1.56 µM for the first, 6.29 µM for the second.

Going from `CCOC(=O)Nc1ccc2c(c1)N(C(=O)CCN(C)C)c1ccccc1S2` [MLS000038082] to `CCOC(=O)C1C(=O)C=C(c2ccc(OC)cc2)CC1c1ccco1` (stereo not given) [6-(2-furanyl)-4-(4-methoxyphenyl)-2-oxo-1-cyclohex-3-enecarboxylic acid ethyl ester], the EC50 falls from 48.7 µM to 3.37 µM (14-fold).

`CCC1CCCCN1C(=O)CSc1nnc(-c2c[nH]c3ccccc23)o1` (stereo not given) and `COC(=O)c1ccc2c(=O)n(C3CCCCC3)c(SCC#N)nc2c1` [2-(cyanomethylthio)-3-cyclohexyl-4-keto-quinazoline-7-carboxylic acid methyl ester] are within 1.5-fold of each other in EC50: 4.61 µM for the first, 6.9 µM for the second.

Going from `CCCc1cc(C(=O)Nc2sc(C)c(CC)c2C#N)no1` [MLS000116385] to `COC(=O)c1sc(NC(=O)c2ccc(OC)cc2OC)nc1C` [2-[(2,4-dimethoxybenzoyl)amino]-4-methyl-thiazole-5-carboxylic acid methyl ester], the EC50 rises from 3.08 µM to 7.76 µM (2.5-fold). The first is the more potent here.

Going from `COc1cc(C#CC#CCN2CCCCC2)ccc1O` [2-methoxy-4-(5-piperidin-1-ylpenta-1,3-diynyl)phenol;hydrochloride] to `CCOC(=O)c1sc2nc(NC(=O)C3CCCCC3)sc2c1C` [2-(cyclohexanecarbonylamino)-6-methyl-thieno[2,3-d]thiazole-5-carboxylic acid ethyl ester], the EC50 rises from 7.1 µM to over 30 µM.

`Cn1nc(C(C)(C)C)cc1C(=O)NCc1ccc(N2CCCC2=O)cc1` [5-tert-Butyl-2-methyl-2H-pyrazole-3-carboxylic acid 4-(2-oxo-pyrrolidin-1-yl)-benzylamide] and `O=S1(=O)Nc2c(ccc3cccnc23)-c2ccccc21` [5H-quinolino[8,7-c][1,2]benzothiazine 6,6-dioxide] are within 1.5-fold of each other in EC50: 4.46 µM for the first, 3.22 µM for the second.

same assay, conditions: inactive by the depositor's call

Going from `Nc1c(C(=O)NC2CCCC2)sc2nc(-c3cccs3)ccc12` [3-Amino-6-thiophen-2-yl-thieno[2,3-b]pyridine-2-carboxylic acid cyclopentylamide] to `COc1ccc2c(c1)-c1nc(NC(=O)c3cccs3)sc1CC2` [N-(8-methoxy-4,5-dihydrobenzo[e][1,3]benzothiazol-2-yl)-2-thiophenecarboxamide], the EC50 rises from 13.6 µM to 20.5 µM (1.5-fold). The first is the more potent here.

Compared with `CCOC(=O)c1sc2nc(NC(=O)C(C)(C)C)sc2c1C` [2-[(2,2-dimethyl-1-oxopropyl)amino]-6-methyl-5-thieno[2,3-d]thiazolecarboxylic acid ethyl ester], `CC(C)[C@H](NC(=O)OC(C)(C)C)c1nnc(SCC(=O)Nc2ccc(Br)cc2)o1` [MLS000040800] is 1.6-fold higher in EC50: 10.1 µM for the first, 16.2 µM for the second. The first is the more potent here.

`Cc1cc(N2CCN(C(c3ccccc3)c3ccccc3)CC2)n2ncnc2n1` [7-(4-benzhydrylpiperazin-1-yl)-5-methyl-[1,2,4]triazolo[1,5-a]pyrimidine] and `Cc1cc(C(=O)N2CCN(C(c3ccccc3)c3ccccc3)CC2)no1` [(4-benzhydrylpiperazin-1-yl)-(5-methyl-1,2-oxazol-3-yl)methanone] are within 1.5-fold of each other in EC50: 13.6 µM for the first, 19.1 µM for the second.

`COc1ccc(Cc2nc(-c3ccc(-n4cccc4)cc3)no2)cc1OC` [3-(4-pyrrol-1-ylphenyl)-5-veratryl-1,2,4-oxadiazole] and `CCOc1cc(-c2noc(-c3cccnc3)n2)ccc1OC` [3-(3-ethoxy-4-methoxy-phenyl)-5-(3-pyridyl)-1,2,4-oxadiazole] are within 1.5-fold of each other in EC50: 13.4 µM for the first, 18.2 µM for the second.

`Cc1cc(C(=O)CN2C(=O)c3ccccc3C2=O)c(C)n1Cc1cccs1` [2-[2-[2,5-dimethyl-1-(2-thenyl)pyrrol-3-yl]-2-keto-ethyl]isoindoline-1,3-quinone] and `Cc1nn(Cc2ccccc2)c(C)c1C(=O)OCC(=O)c1cc(C)n(C2CC2)c1C` [1-benzyl-3,5-dimethyl-pyrazole-4-carboxylic acid [2-(1-cyclopropyl-2,5-dimethyl-pyrrol-3-yl)-2-keto-ethyl] ester] are within 1.5-fold of each other in EC50: 21.4 µM for the first, 15.6 µM for the second.

`C=CCOC(=O)c1[nH]c2c(c1C)C(=O)CC(c1cc(OC)c(OC)c(OC)c1)C2` (stereo not given) [SMR000093465] and `Cc1ccc2nc(NC(=O)CSc3nc4c(c(=O)n3C)SC(C)C4)sc2c1` (stereo not given) [2-[(3,6-dimethyl-4-oxidanylidene-6,7-dihydrothieno[3,2-d]pyrimidin-2-yl)sulfanyl]-N-(6-methyl-1,3-benzothiazol-2-yl)ethanamide] are within 1.5-fold of each other in EC50: 11.1 µM for the first, 16.5 µM for the second.

`Cc1ccc2nc(C(F)(F)F)c(C#N)c(N)c2c1` [4-amino-6-methyl-2-(trifluoromethyl)-3-quinolinecarbonitrile] and `Cc1nc2sc(-c3ccccc3)cc2c(=O)n1-n1cccc1` [2-methyl-6-phenyl-3-(1-pyrrolyl)-4-thieno[2,3-d]pyrimidinone] are within 1.5-fold of each other in EC50: 12 µM for the first, 17.6 µM for the second.

Going from `CCOc1nc(-c2ccccc2)ccc1-c1noc(-c2ccco2)n1` [2-Ethoxy-3-(5-furan-2-yl-[1,2,4]oxadiazol-3-yl)-6-phenyl-pyridine] to `O=S1(=O)C=C(Sc2nnc(-c3ccccc3)o2)c2ccccc21`, the EC50 rises from 14.8 µM to 23.5 µM (1.6-fold).

`CN(Cc1cccs1)c1ncnc2sccc12` [MLS000056228] and `Oc1nnc(Sc2ncnc3sccc23)n1CCc1ccccc1` [4-(2-phenylethyl)-3-(4-thieno[2,3-d]pyrimidinylthio)-1H-1,2,4-triazol-5-one] are within 1.5-fold of each other in EC50: 14.2 µM for the first, 15 µM for the second.

First: c1ccc(N2CCN(Cc3ccnc4ccccc34)CC2)cc1 [4-[(4-phenyl-1-piperazinyl)methyl]quinoline]
Second: O=C1CC(N2CCN(C/C=C/c3ccccc3)CC2)C(=O)N1CCc1ccccc1 (stereo not given) [1-(2-phenylethyl)-3-[4-[(E)-3-phenylprop-2-enyl]-1-piperazinyl]pyrrolidine-2,5-dione]
The EC50 of the first is 1.8-fold lower: 10.6 µM for the first, 19.3 µM for the second. The first is the more potent here.

`CCOc1ccc(Cc2nc(-c3nonc3N)no2)cc1OCC` [4-[5-(3,4-diethoxybenzyl)-1,2,4-oxadiazol-3-yl]-1,2,5-oxadiazol-3-amine] and `CCCOC(=O)c1ccc(OCC(O)Cn2c(C)nc3ccccc32)cc1` (stereo not given) [4-[2-hydroxy-3-(2-methyl-1-benzimidazolyl)propoxy]benzoic acid propyl ester] are within 1.5-fold of each other in EC50: 12.6 µM for the first, 10 µM for the second.

`CCCC(=O)c1ccc(N2CCN(C(=O)c3ccccc3Br)CC2)c(F)c1` [1-[4-[4-(2-bromobenzoyl)piperazin-1-yl]-3-fluorophenyl]butan-1-one] showed an EC50 of 12.1 µM.

From BindingDB's records for doi:10.7270/Q2ZC817P (The Scripps Research Institute Molecular Screening Center, 2007)
